Laboratory results taken from ChEMBL document CHEMBL5727120, “Substituted pyrrolidines as mGluR5 antagonists” (2019).
pIC50: −log10 of the molar value.

Target: Metabotropic glutamate receptor 5 (Rattus norvegicus, UniProt P31424)
Test: Functional Calcium Flux Assay: For functional assays, HEK293 cells stably expressing recombinant rat mGluR5 were seeded in 384-well plates and dye loaded using Fluo-8. Cells were then washed to remove the un-incorporated dye. Antagonist evaluation was performed following a 15 min incubation of the test compound followed by the addition of submaximal concentration of glutamate. Intracellular calcium ([Ca2+]i) measurements were performed using a fluorometric imaging plate reader (FLIPR, Molecular Devices). The glutamate-evoked increase in [Ca2+]i in the presence of the test compounds was compared to the response to glutamate alone (the positive control). Antagonist inhibition curves were fitted with a 4-parameter logistic equation giving IC50 values, and Hill coefficients using an iterative nonlinear curve fitting algorithm.

Chain of Metabotropic glutamate receptor 5 (P31424 whole entry): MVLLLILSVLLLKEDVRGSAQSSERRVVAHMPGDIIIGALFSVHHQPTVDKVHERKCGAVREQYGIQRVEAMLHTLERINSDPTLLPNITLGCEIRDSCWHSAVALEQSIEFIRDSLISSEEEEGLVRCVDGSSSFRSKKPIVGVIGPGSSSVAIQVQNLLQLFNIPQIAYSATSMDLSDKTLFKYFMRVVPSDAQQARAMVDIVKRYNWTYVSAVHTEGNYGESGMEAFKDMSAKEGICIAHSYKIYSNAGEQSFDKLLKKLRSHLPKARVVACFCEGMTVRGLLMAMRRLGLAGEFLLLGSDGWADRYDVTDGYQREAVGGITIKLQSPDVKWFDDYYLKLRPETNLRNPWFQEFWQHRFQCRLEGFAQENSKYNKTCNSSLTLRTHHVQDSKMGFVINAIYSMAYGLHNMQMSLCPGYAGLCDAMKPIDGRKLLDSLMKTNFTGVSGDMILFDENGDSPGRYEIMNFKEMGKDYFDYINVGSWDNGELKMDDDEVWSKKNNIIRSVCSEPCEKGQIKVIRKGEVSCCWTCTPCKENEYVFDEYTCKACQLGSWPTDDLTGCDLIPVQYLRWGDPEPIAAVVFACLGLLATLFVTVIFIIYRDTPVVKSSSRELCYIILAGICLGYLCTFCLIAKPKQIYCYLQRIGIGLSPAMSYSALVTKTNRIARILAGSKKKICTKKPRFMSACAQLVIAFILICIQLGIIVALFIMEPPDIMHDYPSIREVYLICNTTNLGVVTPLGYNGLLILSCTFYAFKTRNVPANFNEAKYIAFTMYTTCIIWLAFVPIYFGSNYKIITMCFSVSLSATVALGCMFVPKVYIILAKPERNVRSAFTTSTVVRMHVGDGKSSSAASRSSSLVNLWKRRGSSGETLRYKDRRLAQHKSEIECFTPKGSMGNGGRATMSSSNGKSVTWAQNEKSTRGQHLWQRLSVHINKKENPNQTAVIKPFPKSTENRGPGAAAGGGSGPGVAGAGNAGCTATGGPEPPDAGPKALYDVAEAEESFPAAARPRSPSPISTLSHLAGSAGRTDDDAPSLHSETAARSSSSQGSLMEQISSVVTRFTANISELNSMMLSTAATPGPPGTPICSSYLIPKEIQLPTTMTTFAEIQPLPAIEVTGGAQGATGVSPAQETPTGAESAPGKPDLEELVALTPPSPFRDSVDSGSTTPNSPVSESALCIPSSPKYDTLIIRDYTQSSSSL

pIC50: > 6.30
Compound: N#Cc1cc(F)cc(N2CC3CC3(C#Cc3cccc(Cl)n3)C2)c1 (stereo unspecified)
